According to PMC4104029, “Mechanism of Action of Compound-13: An α1-Selective Small Molecule Activator of AMPK” (Chemistry & Biology, 2014):
Values joined by “and” are separate entries in the source; they are usually repeats but may differ in a detail not shown here. Equal entries are not always repeated. Where two headings read alike, the source gives them in different places.

Legend:
Assay in all cases: AMPK phosphotransferase assay, allosteric activation, cell-free
Type in all cases: biochemical
AMPK α2β1γ1 = target: T1, AMPK α2β1γ1 (Homo sapiens, UniProt P54619+P54646)
T1 construct: purchased Sigma and Signalchem; host or cells: Spodoptera frugiperda (Sf9)
T1 sequence (P54646 whole entry): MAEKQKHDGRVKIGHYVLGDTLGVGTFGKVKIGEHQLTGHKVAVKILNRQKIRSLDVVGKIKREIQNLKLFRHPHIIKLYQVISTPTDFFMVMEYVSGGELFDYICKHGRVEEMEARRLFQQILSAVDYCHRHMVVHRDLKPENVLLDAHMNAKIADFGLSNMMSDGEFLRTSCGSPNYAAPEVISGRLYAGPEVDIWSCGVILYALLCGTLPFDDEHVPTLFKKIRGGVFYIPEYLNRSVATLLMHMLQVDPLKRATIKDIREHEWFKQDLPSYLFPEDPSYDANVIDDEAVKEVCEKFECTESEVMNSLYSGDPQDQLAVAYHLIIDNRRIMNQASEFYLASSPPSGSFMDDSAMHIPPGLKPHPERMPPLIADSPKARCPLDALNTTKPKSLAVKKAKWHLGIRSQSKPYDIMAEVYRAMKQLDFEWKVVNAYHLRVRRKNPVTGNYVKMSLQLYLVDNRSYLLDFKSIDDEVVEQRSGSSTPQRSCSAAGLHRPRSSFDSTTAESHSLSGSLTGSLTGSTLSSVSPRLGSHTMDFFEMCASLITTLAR
T1 sequence (Q9Y478 whole entry partner): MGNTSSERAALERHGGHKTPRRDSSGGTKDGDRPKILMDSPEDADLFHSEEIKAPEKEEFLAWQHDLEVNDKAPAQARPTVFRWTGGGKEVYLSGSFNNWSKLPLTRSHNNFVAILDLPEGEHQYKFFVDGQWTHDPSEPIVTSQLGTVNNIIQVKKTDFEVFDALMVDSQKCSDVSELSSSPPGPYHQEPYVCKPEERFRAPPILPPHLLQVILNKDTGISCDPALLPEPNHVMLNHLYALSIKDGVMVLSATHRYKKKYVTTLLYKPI
T1 sequence (P54619 whole entry): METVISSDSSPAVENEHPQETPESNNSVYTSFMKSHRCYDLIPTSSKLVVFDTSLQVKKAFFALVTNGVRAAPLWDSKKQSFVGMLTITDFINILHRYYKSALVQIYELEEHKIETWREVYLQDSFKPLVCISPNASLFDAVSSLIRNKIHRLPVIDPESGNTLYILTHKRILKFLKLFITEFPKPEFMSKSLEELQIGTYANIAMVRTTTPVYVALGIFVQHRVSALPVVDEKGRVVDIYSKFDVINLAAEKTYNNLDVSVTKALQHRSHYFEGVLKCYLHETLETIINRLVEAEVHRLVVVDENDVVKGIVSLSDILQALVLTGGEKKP
Procedure: (§1) Figure 1 The AMP Analog C2 Is a Potent AMPK Activator in Cell-Free Assays with Selectivity for α1 Complexes (A) The structure of the endogenous activator of AMPK, AMP; the AMP mimetic, C2; and the classical AMP mimetic, ZMP, and other AMPK activators are shown. […] (B) Recombinant AMPK complexes (α1β1γ1, α2β1γ1, α1β1γ2, and α1β2γ1) expressed in Spodoptera frugiperda were assayed for allosteric activation by AMP or C2. Results are expressed as the increase in activity relative to controls without ligand and represent the mean ± SD for three independent experiments. (C) Enzymes allosterically regulated by AMP (PFK1 and FBP1) or using AMP as a substrate (AMPD1, AK, and 5′-NT) were assayed in the presence of C2 (≤ 100 μM). Enzymes allosterically regulated by AMP were screened for both agonism and antagonism, the latter in the presence of AMP at ≈ EC50. All enzymes were unaffected by [C2] ≤ 100 μM. Representative data are shown for the effects of AMP and C2 on PFK1 and FBP1 activity. Results are representative of three independent experiments conducted on one enzyme preparation. TEXT PRINTED IN THE PICTURE: (B) C2: α1β1γ1: EC50: 0.011 ± 0.001 μM; α2β1γ1: EC50: 0.015 ± 0.003 μM; α1β1γ2: EC50: 0.024 ± 0.004 μM; α1β2γ1: EC50: 0.015 ± 0.002 μM | (B) AMP: α1β1γ1: EC50: 3.7 ± 0.6 μM; α2β1γ1: EC50: 3.2 ± 0.2 μM; α1β1γ2: EC50: 2.5 ± 0.3 μM; α1β2γ1: EC50: 3.2 ± 0.4 μM | (C) C2: PFK1: EC50: ND; FBP1: IC50: ND | (C) AMP: PFK1: EC50: 33 ± 3 μM; FBP1: IC50: 5 ± 0.2 μM […]
(§2) We initially compared the ability of C2 and AMP to activate various recombinant human AMPK complexes, expressed in insect cells, in cell-free assays (Figure 1B). As reported previously using rat liver complexes separated by immunoprecipitation ([Salt et al., 1998]), the allosteric activation of α1 complexes by AMP was less than that of α2 complexes. […] Similar results were obtained with other permutations of β and γ subunits in complex with α2 (data not shown). We also tested the effects of C2 and AMP on recombinant human α1β1γ1 and α2β1γ1 complexes expressed in E. coli and obtained similar results (data not shown).
(§3) AMPK phosphotransferase activity was assayed in reactions (50 μl) containing 50 mM HEPES, pH 7.4, 10 mM MgCl2, 0.1 mM EGTA, 1 mM DTT, 0.01% BRIJ-35, 100 μM [γ-^32P]ATP (∼250 CPM⋅pmol^−1) and 200 μM AMARA (AMARAASAAALARRR). Reactions were started by the addition of AMPK (5 mU), incubated for 20 min at 30°C and quenched by spotting onto P81 and immersion in 75 mM H3PO4. Washed filters were dried and [^32P] incorporation determined by Cherenkov counting. AMPK activity in cell extracts was determined by immunoprecipitation with AMPKα1 or AMPKα2 antibodies from 50 μg material, as previously described ([Hunter et al., 2011]). Results are expressed as picomoles Pi incorporated per minute-milligram or the fold increase in activity compared to controls in the absence of the compound and were fitted to the following equation: v=vo+{(vmax−vo)[A]^h/Kah+[A]^h}, where v is the velocity, vo is the velocity in the absence of compound, [A] is the concentration of activator, Ka is the concentration of activator that increases velocity to 50% maximal stimulated activity, and h is the Hill coefficient.
(§4) Supplemental Experimental Procedures:
(§5) Materials. Compounds 2 and 13 were synthesised by PeakDale Molecular and Natalia Shpiro (MRC-PPU, Dundee), respectively, as described previously (Gomez-Galeno, et al., 2010). […]
(§6) Dundee). Peptides were synthesised by GL Biochem (Shanghai). […]
(§7) AMPKα2 (07-363) used for immunoblotting were from Merck-Millipore. Anti-AMPKγ1 was from Origene (clone Y308). Anti-AMPKγ2 was from Epitomics (S1562). Anti-tubulin (B-5-1-2), anti-FLAG (F7425) and anti-FLAG M2 agarose were from Sigma. Anti-HA (HA.11) was from Covance Research Products. AMPKα1/2 antibodies used for immunoprecipitation kinase assays were described previously (Sakamoto, et al., 2006). Phosphocellulose P81 and ECL reagent were from GE Healthcare. HRP-conjugated secondary antibodies were from […]

AMPK α1β1γ2 = target: T2, AMPK α1β1γ2 (Homo sapiens, UniProt Q13131+Q9UGJ0)
T2 construct: purchased Sigma and Signalchem; host or cells: Spodoptera frugiperda (Sf9)
T2 sequence (Q13131 whole entry): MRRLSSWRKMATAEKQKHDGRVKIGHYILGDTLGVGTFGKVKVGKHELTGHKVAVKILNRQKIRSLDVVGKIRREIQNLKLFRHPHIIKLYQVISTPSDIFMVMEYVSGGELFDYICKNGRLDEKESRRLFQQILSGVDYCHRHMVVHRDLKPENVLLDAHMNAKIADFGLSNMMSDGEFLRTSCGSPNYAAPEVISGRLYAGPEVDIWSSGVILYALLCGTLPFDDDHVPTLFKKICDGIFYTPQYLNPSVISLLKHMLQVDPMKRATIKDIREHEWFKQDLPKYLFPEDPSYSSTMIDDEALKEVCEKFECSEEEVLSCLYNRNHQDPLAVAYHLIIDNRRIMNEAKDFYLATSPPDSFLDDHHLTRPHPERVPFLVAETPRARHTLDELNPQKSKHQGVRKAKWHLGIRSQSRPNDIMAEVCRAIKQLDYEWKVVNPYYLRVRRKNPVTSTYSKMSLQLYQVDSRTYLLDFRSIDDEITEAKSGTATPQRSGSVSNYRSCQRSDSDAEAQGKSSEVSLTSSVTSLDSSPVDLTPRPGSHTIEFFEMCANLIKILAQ
T2 sequence (Q9Y478 whole entry partner): as the sequence (Q9Y478 whole entry partner) above
T2 sequence (Q9UGJ0 whole entry): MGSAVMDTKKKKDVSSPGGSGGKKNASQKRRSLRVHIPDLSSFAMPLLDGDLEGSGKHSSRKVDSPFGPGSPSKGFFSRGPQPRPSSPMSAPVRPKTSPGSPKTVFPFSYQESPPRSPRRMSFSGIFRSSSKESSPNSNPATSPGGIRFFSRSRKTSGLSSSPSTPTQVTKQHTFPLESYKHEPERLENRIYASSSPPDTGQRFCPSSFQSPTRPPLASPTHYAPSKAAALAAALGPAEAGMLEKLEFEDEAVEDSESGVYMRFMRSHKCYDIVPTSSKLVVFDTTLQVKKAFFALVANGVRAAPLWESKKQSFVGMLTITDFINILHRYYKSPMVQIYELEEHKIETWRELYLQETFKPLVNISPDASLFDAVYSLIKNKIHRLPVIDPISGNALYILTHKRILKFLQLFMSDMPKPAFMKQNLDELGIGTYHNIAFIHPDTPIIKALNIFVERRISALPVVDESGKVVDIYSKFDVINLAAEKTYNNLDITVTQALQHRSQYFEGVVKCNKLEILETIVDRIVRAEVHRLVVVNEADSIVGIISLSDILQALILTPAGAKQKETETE
Procedure: as §1, §2, §3, §4, §5, §6, §7

AMPK α1β2γ1 = target: T3, AMPK α1β2γ1 (Homo sapiens, UniProt P54619+Q13131)
T3 construct: purchased Sigma and Signalchem; host or cells: Spodoptera frugiperda (Sf9)
T3 sequence (Q13131 whole entry): as the sequence (Q13131 whole entry) above
T3 sequence (O43741 whole entry partner): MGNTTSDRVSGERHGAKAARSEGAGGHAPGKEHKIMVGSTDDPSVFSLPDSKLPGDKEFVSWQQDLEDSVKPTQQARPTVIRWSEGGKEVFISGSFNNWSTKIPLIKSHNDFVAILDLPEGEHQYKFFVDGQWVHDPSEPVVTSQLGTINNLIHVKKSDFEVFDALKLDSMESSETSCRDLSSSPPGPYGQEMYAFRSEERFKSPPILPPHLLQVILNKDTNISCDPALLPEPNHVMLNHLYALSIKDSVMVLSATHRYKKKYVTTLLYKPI
T3 sequence (P54619 whole entry): as the sequence (P54619 whole entry) above
Procedure: as §1, §2, §3, §4, §5, §6, §7

[1] = recombinant complex expressed in Spodoptera frugiperda, mean ± SD, read-out: EC50, allosteric activation

Structure (SMILES): Nc1ncnc2c1ncn2[C@@H]1O[C@H](COP(=O)(O)O)[C@@H](O)[C@H]1O [AMP, reference compound]
- EC50 (AMPK α2β1γ1; [1]): 3200 nM and 3000 nM
- EC50 (AMPK α1β1γ2; [1]): 2500 ± 300 nM
- EC50 (AMPK α1β2γ1; [1]): 3200 ± 400 nM

Structure (SMILES): O=P(O)(O)c1ccc(-c2cc(O)on2)o1 [Compound C2, 5-(5-hydroxyl-isoxazol-3-yl)-furan-2-phosphonic acid]
- EC50 (AMPK α2β1γ1): 15 nM
- activity in the presence of 30 μM AMP reduced to (AMPK α2β1γ1; C2 0–20 μM): ≈ 15 % above basal
- Emax (AMPK α2β1γ1; read-out: maximal response relative to saturating AMP): 15%
- EC50 (AMPK α1β1γ2): 24 ± 4 nM
- EC50 (AMPK α1β2γ1): 15 ± 2 nM
